Measurements reported in patent publication US20120122860A1, “SOLID FORMS OF SULFONAMIDES AND AMINO ACIDS” (Plexxikon, Inc., priority 2009, published 2012).

Columns and labels:
[1] = biological target: B-Raf (Homo sapiens, UniProt P15056); test: Kinase activity assay, B-Raf; type: biochemical; settings: read-out: activity toward kinase B-Raf, IC50
[2] = biological target: MAP4K4 (Homo sapiens, UniProt O95819); test: Kinase activity assay, MAP4K4
[3] = biological target: T1, A-Raf (Homo sapiens, UniProt P10398); test: Kinase activity assay, A-Raf
T1 sequence (P10398 1-606): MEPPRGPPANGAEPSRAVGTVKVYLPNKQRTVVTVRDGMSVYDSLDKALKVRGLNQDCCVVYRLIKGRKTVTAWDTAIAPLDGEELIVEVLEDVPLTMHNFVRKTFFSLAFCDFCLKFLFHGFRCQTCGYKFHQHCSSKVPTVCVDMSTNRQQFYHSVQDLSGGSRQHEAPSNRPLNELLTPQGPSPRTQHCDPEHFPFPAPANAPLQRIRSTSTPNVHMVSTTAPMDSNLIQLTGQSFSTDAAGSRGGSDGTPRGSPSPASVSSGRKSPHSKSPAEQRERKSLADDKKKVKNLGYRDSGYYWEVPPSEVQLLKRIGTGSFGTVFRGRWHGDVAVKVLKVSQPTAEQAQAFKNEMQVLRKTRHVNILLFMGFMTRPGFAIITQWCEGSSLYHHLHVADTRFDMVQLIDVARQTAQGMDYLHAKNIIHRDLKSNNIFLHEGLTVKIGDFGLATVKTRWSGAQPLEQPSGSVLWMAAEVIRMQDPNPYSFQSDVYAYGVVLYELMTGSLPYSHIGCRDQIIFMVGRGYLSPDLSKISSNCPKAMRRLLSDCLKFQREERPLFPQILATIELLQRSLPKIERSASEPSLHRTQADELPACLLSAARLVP

[4] = biological target: B-Raf V600E (Homo sapiens, UniProt P15056, V600E); test: Kinase activity assay, B-Raf V600E; type: biochemical; settings: read-out: activity toward kinase B-Raf V600E, IC50
[5] = biological target: Src (Homo sapiens, UniProt P12931); test: Kinase activity assay, Src
[6] = biological target: Kit (Homo sapiens, UniProt P10721); test: Kinase activity assay, Kit
[7] = biological target: C-Raf (Homo sapiens, UniProt P04049); test: Kinase activity assay, C-Raf
[8] = biological target: Kdr (Homo sapiens, UniProt P35968); test: Kinase activity assay, Kdr
Chain of Kdr (P35968 20-1356): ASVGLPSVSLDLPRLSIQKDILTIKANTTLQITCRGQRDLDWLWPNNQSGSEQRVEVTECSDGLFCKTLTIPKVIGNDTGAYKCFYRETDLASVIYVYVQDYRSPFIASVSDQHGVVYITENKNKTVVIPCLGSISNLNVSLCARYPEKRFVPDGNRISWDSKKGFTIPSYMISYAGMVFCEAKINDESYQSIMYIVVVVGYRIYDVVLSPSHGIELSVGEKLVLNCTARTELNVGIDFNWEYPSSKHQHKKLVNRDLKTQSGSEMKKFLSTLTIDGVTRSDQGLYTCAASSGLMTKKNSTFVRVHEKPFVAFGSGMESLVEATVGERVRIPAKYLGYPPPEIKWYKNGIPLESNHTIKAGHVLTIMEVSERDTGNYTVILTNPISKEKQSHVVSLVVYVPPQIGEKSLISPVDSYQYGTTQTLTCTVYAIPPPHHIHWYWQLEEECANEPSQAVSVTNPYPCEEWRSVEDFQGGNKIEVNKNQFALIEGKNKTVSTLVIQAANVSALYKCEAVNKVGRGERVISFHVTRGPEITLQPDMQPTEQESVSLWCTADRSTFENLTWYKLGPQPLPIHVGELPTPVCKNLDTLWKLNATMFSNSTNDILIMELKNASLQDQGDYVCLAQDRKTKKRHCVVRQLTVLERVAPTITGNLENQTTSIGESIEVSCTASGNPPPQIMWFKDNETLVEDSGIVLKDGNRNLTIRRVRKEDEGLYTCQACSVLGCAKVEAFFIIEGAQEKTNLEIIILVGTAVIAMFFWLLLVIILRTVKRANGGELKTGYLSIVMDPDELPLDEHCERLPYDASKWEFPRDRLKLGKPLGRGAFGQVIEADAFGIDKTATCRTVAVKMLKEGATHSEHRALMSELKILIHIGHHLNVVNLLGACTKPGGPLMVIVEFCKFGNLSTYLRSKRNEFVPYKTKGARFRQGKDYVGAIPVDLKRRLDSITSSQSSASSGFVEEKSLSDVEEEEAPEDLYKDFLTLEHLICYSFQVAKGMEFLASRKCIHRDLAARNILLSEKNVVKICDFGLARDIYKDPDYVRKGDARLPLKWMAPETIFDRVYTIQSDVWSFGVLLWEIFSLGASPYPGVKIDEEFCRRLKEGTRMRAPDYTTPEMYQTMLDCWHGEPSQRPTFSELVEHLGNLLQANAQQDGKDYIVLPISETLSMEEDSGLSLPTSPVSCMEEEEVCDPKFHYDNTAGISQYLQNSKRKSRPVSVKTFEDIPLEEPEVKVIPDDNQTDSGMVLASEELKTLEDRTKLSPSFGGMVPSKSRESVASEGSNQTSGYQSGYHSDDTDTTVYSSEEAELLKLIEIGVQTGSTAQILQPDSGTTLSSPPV

Chain of B-Raf (P15056 whole entry): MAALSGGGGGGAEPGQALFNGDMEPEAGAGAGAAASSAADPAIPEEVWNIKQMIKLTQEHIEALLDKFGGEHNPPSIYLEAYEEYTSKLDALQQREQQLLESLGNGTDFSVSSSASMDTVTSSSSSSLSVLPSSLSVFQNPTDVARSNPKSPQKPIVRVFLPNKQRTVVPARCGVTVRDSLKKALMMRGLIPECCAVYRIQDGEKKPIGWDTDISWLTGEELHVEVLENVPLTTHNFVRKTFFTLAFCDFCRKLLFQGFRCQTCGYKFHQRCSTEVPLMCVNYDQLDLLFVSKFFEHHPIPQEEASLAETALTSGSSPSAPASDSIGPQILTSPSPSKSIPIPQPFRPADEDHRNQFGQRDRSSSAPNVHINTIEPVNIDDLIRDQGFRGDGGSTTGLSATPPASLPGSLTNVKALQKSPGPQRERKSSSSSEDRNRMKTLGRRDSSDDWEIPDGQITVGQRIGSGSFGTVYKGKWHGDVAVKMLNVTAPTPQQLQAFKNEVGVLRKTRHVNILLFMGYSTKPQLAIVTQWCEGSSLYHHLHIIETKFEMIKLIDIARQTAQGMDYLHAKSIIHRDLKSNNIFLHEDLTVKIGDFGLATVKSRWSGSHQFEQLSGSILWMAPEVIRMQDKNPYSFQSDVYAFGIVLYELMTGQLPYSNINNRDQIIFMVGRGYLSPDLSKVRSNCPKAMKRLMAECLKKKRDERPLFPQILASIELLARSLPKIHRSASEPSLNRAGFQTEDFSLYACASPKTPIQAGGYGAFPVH
Chain of Kit (P10721 26-976): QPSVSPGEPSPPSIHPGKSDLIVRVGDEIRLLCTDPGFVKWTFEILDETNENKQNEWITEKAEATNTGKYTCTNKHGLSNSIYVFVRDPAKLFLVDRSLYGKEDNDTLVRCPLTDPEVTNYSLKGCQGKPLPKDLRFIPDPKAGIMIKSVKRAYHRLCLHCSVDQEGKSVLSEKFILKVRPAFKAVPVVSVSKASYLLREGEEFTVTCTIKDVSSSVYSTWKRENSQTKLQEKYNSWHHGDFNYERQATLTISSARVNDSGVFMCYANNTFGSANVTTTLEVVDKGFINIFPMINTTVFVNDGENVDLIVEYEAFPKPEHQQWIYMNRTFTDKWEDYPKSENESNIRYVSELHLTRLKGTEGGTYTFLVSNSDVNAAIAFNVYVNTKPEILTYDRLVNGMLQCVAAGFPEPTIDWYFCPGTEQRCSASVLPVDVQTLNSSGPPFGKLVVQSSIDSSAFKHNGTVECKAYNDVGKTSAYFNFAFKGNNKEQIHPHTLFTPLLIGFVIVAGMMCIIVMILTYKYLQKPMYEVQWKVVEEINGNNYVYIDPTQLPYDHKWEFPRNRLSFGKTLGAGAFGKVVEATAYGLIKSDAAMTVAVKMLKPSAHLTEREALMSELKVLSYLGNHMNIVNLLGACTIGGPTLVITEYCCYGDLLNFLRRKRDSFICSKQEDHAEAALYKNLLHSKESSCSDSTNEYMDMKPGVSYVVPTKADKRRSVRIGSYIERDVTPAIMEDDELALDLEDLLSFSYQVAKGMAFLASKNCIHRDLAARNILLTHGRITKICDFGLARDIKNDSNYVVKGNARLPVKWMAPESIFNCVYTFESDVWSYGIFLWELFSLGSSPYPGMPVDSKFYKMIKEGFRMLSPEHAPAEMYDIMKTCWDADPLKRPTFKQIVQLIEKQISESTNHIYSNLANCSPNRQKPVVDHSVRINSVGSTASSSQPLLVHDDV
Chain of Src (P12931 whole entry): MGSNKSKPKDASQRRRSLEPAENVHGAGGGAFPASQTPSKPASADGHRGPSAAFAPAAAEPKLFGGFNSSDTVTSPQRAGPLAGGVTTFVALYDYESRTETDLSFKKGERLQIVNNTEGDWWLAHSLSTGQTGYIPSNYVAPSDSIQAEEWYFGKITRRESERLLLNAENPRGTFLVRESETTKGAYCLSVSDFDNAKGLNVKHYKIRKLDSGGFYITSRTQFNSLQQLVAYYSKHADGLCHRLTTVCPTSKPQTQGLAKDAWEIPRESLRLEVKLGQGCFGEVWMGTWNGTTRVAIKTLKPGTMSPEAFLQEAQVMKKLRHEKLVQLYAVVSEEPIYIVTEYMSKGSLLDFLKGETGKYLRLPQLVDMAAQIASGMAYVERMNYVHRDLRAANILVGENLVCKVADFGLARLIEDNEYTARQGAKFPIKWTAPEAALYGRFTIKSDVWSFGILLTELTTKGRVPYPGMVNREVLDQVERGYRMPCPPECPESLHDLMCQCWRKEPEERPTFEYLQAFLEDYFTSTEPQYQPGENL
Chain of C-Raf (P04049 whole entry): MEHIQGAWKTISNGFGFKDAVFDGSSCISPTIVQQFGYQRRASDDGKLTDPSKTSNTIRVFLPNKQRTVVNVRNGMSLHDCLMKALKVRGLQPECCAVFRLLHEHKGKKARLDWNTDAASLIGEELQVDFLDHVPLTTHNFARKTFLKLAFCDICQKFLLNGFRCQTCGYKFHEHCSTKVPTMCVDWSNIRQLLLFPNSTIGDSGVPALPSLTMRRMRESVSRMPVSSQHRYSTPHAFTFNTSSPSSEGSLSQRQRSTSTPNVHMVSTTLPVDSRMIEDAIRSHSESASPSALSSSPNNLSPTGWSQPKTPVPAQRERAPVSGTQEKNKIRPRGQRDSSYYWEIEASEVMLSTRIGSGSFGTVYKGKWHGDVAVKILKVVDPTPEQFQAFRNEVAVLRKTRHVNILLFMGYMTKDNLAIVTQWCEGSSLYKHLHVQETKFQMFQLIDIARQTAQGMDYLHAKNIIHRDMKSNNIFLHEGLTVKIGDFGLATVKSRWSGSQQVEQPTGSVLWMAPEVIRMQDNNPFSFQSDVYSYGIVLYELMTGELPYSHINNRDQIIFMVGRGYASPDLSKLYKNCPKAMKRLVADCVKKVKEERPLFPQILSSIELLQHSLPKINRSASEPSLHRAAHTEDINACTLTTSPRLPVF
Chain of B-Raf V600E (P15056 whole entry V600E): as the sequence (P15056 whole entry) above, with V600E counted along it

SMILES | IC50 [1] | IC50 [2] | IC50 [3] | IC50 [4] | IC50 [5] | IC50 [6] | IC50 [7] | IC50 [8]
CS(=O)(=O)Nc1ccc(F)c(C(=O)c2c[nH]c3nccc(Cl)c23)c1F [P-2290, N-[3-(4-Chloro-1H-pyrrolo[2,3-b]pyridine-3-carbonyl)-2,4-difluoro-phenyl]-methanesulfonamide] | ≤ 10 µM | ≤ 10 µM | ≤ 10 µM | ≤ 10 µM | ≤ 10 µM | ≤ 10 µM | ≤ 10 µM | ≤ 10 µM
CCCC(C)S(=O)(=O)Nc1ccc(F)c(C(=O)c2c[nH]c3ncc(C)cc23)c1F (stereo not shown) [P-2315, Pentane-2-sulfonic acid [2,4-difluoro-3-(5-methyl-1H-pyrrolo[2,3-b]pyridine-3-carbonyl)-phenyl]-amide] |  | ≤ 10 µM | ≤ 10 µM | ≤ 10 µM | ≤ 10 µM | ≤ 10 µM |  | ≤ 10 µM
COc1cnc2[nH]cc(C(=O)c3c(F)ccc(NS(=O)(=O)CCC(F)(F)F)c3F)c2c1 [P-2327, 3,3,3-Trifluoro-propane-1-sulfonic acid [2,4-difluoro-3-(5-methoxy-1H-pyrrolo[2,3-b]pyridine-3-carbonyl)-phenyl]-amide] | ≤ 10 µM | ≤ 10 µM | ≤ 10 µM | ≤ 10 µM | ≤ 10 µM | ≤ 10 µM | ≤ 10 µM | ≤ 10 µM
Cc1cnc2[nH]cc(C(=O)c3c(F)ccc(NS(=O)(=O)CCC(F)(F)F)c3F)c2c1 [P-2328, 3,3,3-Trifluoro-propane-1-sulfonic acid [2,4-difluoro-3-(5-methyl-1H-pyrrolo[2,3-b]pyridine-3-carbonyl)-phenyl]-amide] | ≤ 10 µM | ≤ 10 µM | ≤ 10 µM | ≤ 10 µM | ≤ 10 µM | ≤ 10 µM | ≤ 10 µM | ≤ 10 µM
O=C(c1c(F)ccc(NS(=O)(=O)CCC(F)(F)F)c1F)c1c[nH]c2nccc(Cl)c12 [P-2329, 3,3,3-Trifluoro-propane-1-sulfonic acid [3-(4-chloro-1H-pyrrolo[2,3-b]pyridine-3-carbonyl)-2,4-difluoro-phenyl]-amide] | ≤ 10 µM | ≤ 10 µM | ≤ 10 µM | ≤ 10 µM | ≤ 10 µM | ≤ 10 µM | ≤ 10 µM | ≤ 10 µM
COc1cnc2[nH]cc(C(=O)c3c(F)ccc(NS(=O)(=O)CC(F)(F)F)c3F)c2c1 [P-2335, 2,2,2-Trifluoro-ethanesulfonic acid [2,4-difluoro-3-(5-methoxy-1H-pyrrolo[2,3-b]pyridine-3-carbonyl)-phenyl]-amide] | ≤ 10 µM | ≤ 10 µM | ≤ 10 µM | ≤ 10 µM | ≤ 10 µM | ≤ 10 µM | ≤ 10 µM | ≤ 10 µM
O=C(c1c(F)ccc(NS(=O)(=O)C(F)(F)F)c1F)c1c[nH]c2ncc(Cl)cc12 [P-2346, N-[3-(5-Chloro-1H-pyrrolo[2,3-b]pyridine-3-carbonyl)-2,4-difluoro-phenyl]-C,C,C-trifluoro-methanesulfonamide] | ≤ 10 µM | ≤ 10 µM | ≤ 10 µM | ≤ 10 µM | ≤ 10 µM |  | ≤ 10 µM | ≤ 10 µM
O=C(c1c(F)ccc(NS(=O)(=O)C2CCCCC2)c1F)c1c[nH]c2nccc(Cl)c12 [P-2367, Cyclohexanesulfonic acid [3-(4-chloro-1H-pyrrolo[2,3-b]pyridine-3-carbonyl)-2,4-difluoro-phenyl]-amide] | ≤ 10 µM | ≤ 10 µM | ≤ 10 µM | ≤ 10 µM | ≤ 10 µM | ≤ 10 µM | ≤ 10 µM | 
CCCS(=O)(=O)Nc1cccc(C(=O)c2c[nH]c3ncc(-c4cnc(N(C)C)nc4)cc23)c1F [P-2408, Propane-1-sulfonic acid {3-[5-(2-dimethylamino-pyrimidin-5-yl)-1H-pyrrolo[2,3-b]pyridine-3-carbonyl]-2-fluoro-phenyl}-amide] | ≤ 10 µM | ≤ 10 µM | ≤ 10 µM | ≤ 10 µM | ≤ 10 µM |  | ≤ 10 µM | ≤ 10 µM

The next lines start with the values.

IC50 [1] | IC50 [2] | IC50 [3] | IC50 [4] | IC50 [5] | IC50 [6] | IC50 [7] | IC50 [8] | SMILES
≤ 10 µM | ≤ 10 µM | ≤ 10 µM | ≤ 10 µM | ≤ 10 µM | ≤ 10 µM | ≤ 10 µM | ≤ 10 µM | COc1cnc2[nH]cc(C(=O)c3c(F)ccc(NS(=O)(=O)c4ccccc4F)c3F)c2c1 [P-2009, N-[2,4-Difluoro-3-(5-methoxy-1H-pyrrolo[2,3-b]pyridine-3-carbonyl)-phenyl]-2-fluoro-benzenesulfonamide]
≤ 10 µM | ≤ 10 µM | ≤ 10 µM | ≤ 10 µM | ≤ 10 µM | ≤ 10 µM | ≤ 10 µM | ≤ 10 µM | N#Cc1cnc2[nH]cc(C(=O)c3c(F)ccc(NS(=O)(=O)c4ccccc4F)c3F)c2c1 [P-2011, N-[3-(5-Cyano-1H-pyrrolo[2,3-b]pyridine-3-carbonyl)-2,4-difluoro-phenyl]-2-fluoro-benzenesulfonamide]
≤ 10 µM | ≤ 10 µM | ≤ 10 µM | ≤ 10 µM | ≤ 10 µM | ≤ 10 µM | ≤ 10 µM | ≤ 10 µM | Cc1cnc2[nH]cc(C(=O)c3c(F)ccc(NS(=O)(=O)c4ccccc4F)c3F)c2c1 [P-2014, N-[2,4-Difluoro-3-(5-methyl-1H-pyrrolo[2,3-b]pyridine-3-carbonyl)-phenyl]-2-fluoro-benzenesulfonamide]
≤ 10 µM | ≤ 10 µM | ≤ 10 µM | ≤ 10 µM | ≤ 10 µM | ≤ 10 µM | ≤ 10 µM | ≤ 10 µM | Cc1cnc2[nH]cc(C(=O)c3c(F)ccc(NS(=O)(=O)c4cccc(F)c4)c3F)c2c1 [P-2016, N-[2,4-Difluoro-3-(5-methyl-1H-pyrrolo[2,3-b]pyridine-3-carbonyl)-phenyl]-3-fluoro-benzenesulfonamide]
≤ 10 µM | ≤ 10 µM | ≤ 10 µM | ≤ 10 µM | ≤ 10 µM | ≤ 10 µM | ≤ 10 µM | ≤ 10 µM | O=C(c1c(F)ccc(NS(=O)(=O)c2cccc(F)c2)c1F)c1c[nH]c2nccc(Cl)c12 [P-2019, N-[3-(4-Chloro-1H-pyrrolo[2,3-b]pyridine-3-carbonyl)-2,4-difluoro-phenyl]-3-fluoro-benzenesulfonamide]
≤ 10 µM | ≤ 10 µM | ≤ 10 µM | ≤ 10 µM | ≤ 10 µM | ≤ 10 µM | ≤ 10 µM | ≤ 10 µM | N#Cc1ccnc2[nH]cc(C(=O)c3c(F)ccc(NS(=O)(=O)c4cc(F)ccc4F)c3F)c12 [P-2036, N-[3-(4-Cyano-1H-pyrrolo[2,3-b]pyridine-3-carbonyl)-2,4-difluoro-phenyl]-2,5-difluoro-benzenesulfonamide]
≤ 10 µM | ≤ 10 µM | ≤ 10 µM | ≤ 10 µM | ≤ 10 µM | ≤ 10 µM | ≤ 10 µM | ≤ 10 µM | CCCS(=O)(=O)Nc1ccc(F)c(C(=O)c2c[nH]c3ncc(-c4ccc(N5CCCC5)nc4)cc23)c1F [P-2231, Propane-1-sulfonic acid {2,4-difluoro-3-[5-(6-pyrrolidin-1-yl-pyridin-3-yl)-1H-pyrrolo[2,3-b]pyridine-3-carbonyl]-phenyl}-amide]
≤ 10 µM | ≤ 10 µM | ≤ 10 µM | ≤ 10 µM | ≤ 10 µM | ≤ 10 µM | ≤ 10 µM | ≤ 10 µM | CCS(=O)(=O)Nc1ccc(F)c(C(=O)c2c[nH]c3ncc(OC)cc23)c1F [P-2272, Ethanesulfonic acid [2,4-difluoro-3-(5-methoxy-1H-pyrrolo[2,3-b]pyridine-3-carbonyl)-phenyl]-amide]
≤ 10 µM | ≤ 10 µM | ≤ 10 µM | ≤ 10 µM | ≤ 10 µM | ≤ 10 µM | ≤ 10 µM | ≤ 10 µM | CC(C)S(=O)(=O)Nc1ccc(F)c(C(=O)c2c[nH]c3ncc(Cl)cc23)c1F [P-2275, Propane-2-sulfonic acid [3-(5-chloro-1H-pyrrolo[2,3-b]pyridine-3-carbonyl)-2,4-difluoro-phenyl]-amide]
